Assay results reported in patent publication US20260109707A1, “HETEROBIFUNCTIONAL COMPOUNDS AND METHODS OF TREATING DISEASE” (Halda Therapeutics OpCo. Inc., priority 2022, published 2026).

Key:
[1] = tested on: T-Rex 293 cell line SC3 cells having increased expression of androgen receptor protein due to exposure to doxycycline; test: Cellular growth inhibition assay, T-Rex 293 SC3 cells with doxycycline (CellTiter-Glo, 72 hours); assay type: cell-based; details: 72 h, T-Rex 293 SC3 cells with increased androgen receptor expression due to doxycycline (10 ng/mL)
Summary of the method: (§1)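 Growth inhibition is measured in an inducible AR-expressing T-Rex 293 clone, SC3, cultured with or without 10 ng/mL doxycycline in hormone-depleted medium. Test compounds are applied for 72 hours. GI50 values derive from CellTiter-Glo 2.0 signal fitted by four-parameter regression.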

[2] = tested on: T-Rex 293 cell line SC3 cells lacking increased expression of androgen receptor protein; test: Cellular growth inhibition assay, T-Rex 293 SC3 cells without doxycycline (CellTiter-Glo, 72 hours); assay type: cell-based; details: T-Rex 293 cell line SC3 cells not exposed to doxycycline (lacking increased androgen receptor expression)
Summary of the method: as §1

VCaP cells = test: Cellular growth inhibition assay for VCaP cells (CellTiter-Glo, 72 hours); assay type: cell-based, human; details: Homo sapiens, VCaP, 72 h
Summary of the method: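 Luminescent viability signal after 72 h of compound exposure gave GI50 values by four-parameter nonlinear regression. Compounds were added in 0.5% DMSO to cells plated 24 h earlier at 5000/well in DMEM containing 10% FBS.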

T47D cells = test: Cellular growth inhibition assay for T47D cells (CellTiter-Glo, 72 hours); assay type: cell-based, human; details: Homo sapiens, T47D, 72 h, 72 hours treatment
Experimental: T47D cells were purchased from American Type Cell Culture (ATCC Cat #HTB-133) and then seeded on poly-D-lysine coated, black clear-bottom 384-well plates at 3000/well in 25 μL Dulbecco's Modified Eagle Medium (DMEM) supplemented with 10% w/w Fetal bovine serum (FBS), 0.2 units/mL recombinant human insulin (Gibco Cat #12585014), and 1% w/w Pen-Strep. Pen-Strep is a commercially available mixture of penicillin G and streptomycin, which is used in mammalian cell culture media to prevent bacterial contamination. Dulbecco's Modified Eagle Medium (DMEM) supplemented with 10% w/w fetal bovine serum (FBS), 0.2 units/mL recombinant human insulin, and 1% w/w Pen-Strep is herein referred to as Treatment Medium. Following seeding of cells in the plates, the plates were spun at 300×g for 30 seconds, then equilibrated to room temperature for 30 minutes, and then deposited in a humidified tissue culture incubator maintained at 37° C. with 5% CO2.
At 24 hours after seeding of the cells, dilutions of test compound were prepared in DMSO and dissolved in Treatment Medium, to achieve a final DMSO concentration of 0.5% w/w, thereby providing the Test Compound Solution. A 25 μL aliquot of the Test Compound Solution was added to cells in the well plates. An equal volume of a solution containing DMSO and Treatment Medium was used as a negative control. Following treatment of cells with Test Compound Solution or said equal volume of a solution containing DMSO and Treatment Medium, the plates were spun at 300×g for 30 seconds, and then left in an incubator for 72 hours.
At the end of the treatment duration, cell viability was quantified with CellTiter-Glo 2.0 reagent (Promega Cat #G9243). For this purpose, plates were equilibrated to room temperature for 30 minutes, and then 25 μL of CellTiter-Glo 2.0 reagent was added to cells in the plate wells. Plates were then agitated on a shaker for two minutes at 500 rpm and subsequently incubated at room temperature for 10 minutes. Following incubation, the plates were spun at 3000×g for 30 seconds, then sealed with an optical adhesive cover, and luminescence readings were measured with an EnVision Plate Reader (Perkin Elmer).
Data was normalized using zero luminescence for baseline. A four-parameter non-linear regression curve fit was applied to dose-response data in GraphPad Prism data analysis software to determine the half-maximal growth inhibitory concentration (GI50) for each test compound.

| SMILES | GI50 [1] | GI50 ([2]; 72 h) | GI50 (VCaP cells) | GI50 (T47D cells) | GI50 [2] |
| --- | --- | --- | --- | --- | --- |
| Cc1sc2c(c1C)C(c1ccc(N3CCC4(CC3)CCN(c3ccc(C(=O)NC5CCC(Oc6ccc(C#N)c(Cl)c6)CC5)nn3)CC4)cc1)=N[C@@H](Cc1ncco1)c1nnc(C)n1-2 (stereo partly shown) [I-397] | < 500 nM | < 500 nM | < 500 nM | < 500 nM | – |
| Cc1sc2c(c1C)C(c1ccc(C#CC3CC4(C3)CN(c3ccc(C(=O)N[C@H]5CC[C@H](Oc6ccc(C#N)c(Cl)c6)CC5)nn3)C4)cc1)=N[C@@H](Cc1ncco1)c1nnc(C)n1-2 [I-138] | < 500 nM | < 500 nM | < 500 nM | < 500 nM | – |
| Cc1sc2c(c1C)C(c1ccc(C[C@H]3C[C@@]4(CCCN(c5ccc(C(=O)N[C@H]6CC[C@H](Oc7ccc(C#N)c(Cl)c7)CC6)nn5)C4)C3)cc1)=N[C@@H](C)c1nnc(C)n1-2 [I-351] | < 500 nM | > 3000 nM | 1500 to 3000 nM | > 3000 nM | – |
| Cc1sc2c(c1C)C(c1ccc(OCC3CC4(CCCN(c5ccc(C(=O)N[C@H]6CC[C@H](Oc7ccc(C#N)c(Cl)c7)CC6)nn5)C4)C3)nc1)=N[C@@H](C)c1nnc(C)n1-2 (stereo partly shown) [I-424] | < 500 nM | – | < 500 nM | 500 to 1500 nM | > 3000 nM |
| CCNC(=O)C[C@@H]1N=C(c2ccc(N(C)CCN3CCN(c4ccc(C(=O)N[C@H]5CC[C@H](Oc6ccc(C#N)c(Cl)c6)CC5)nn4)CC3)cc2)c2c(sc(C)c2C)-n2c(C)nnc21 [I-35] | < 500 nM | 500 to 1500 nM | < 500 nM | 500 to 1500 nM | – |
| Cc1sc2c(c1C)C(c1ccc(OCC[C@@H]3CCCN(c4ccc(C(=O)N[C@H]5CC[C@H](Oc6ccc(C#N)c(Cl)c6)CC5)nn4)C3)cc1)=N[C@@H](Cc1ncco1)c1nnc(C)n1-2 [I-256] | < 500 nM | < 500 nM | < 500 nM | < 500 nM | – |
| Cc1sc2c(c1C)C(c1ccc(C(=O)N3CCC(Cc4ccc(C(=O)N[C@H]5CC[C@H](Oc6ccc(C#N)c(Cl)c6)CC5)nn4)CC3)cc1)=N[C@@H](Cc1ncco1)c1nnc(C)n1-2 [I-240] | < 500 nM | > 3000 nM | > 3000 nM | 500 to 1500 nM | – |
| Cc1sc2c(c1C)C(c1ccc(C(=O)N3CC[C@]4(CCCN(c5ccc(C(=O)N[C@H]6CC[C@H](Oc7ccc(C#N)c(Cl)c7)CC6)nn5)C4)C3)cc1)=N[C@H](Cc1ncco1)c1nnc(C)n1-2 [I-272] | < 500 nM | > 3000 nM | 1500 to 3000 nM | 1500 to 3000 nM | – |
| Cc1sc2c(c1C)C(c1ccc(CC(C)(C)N3CC4(CCCN(c5ccc(C(=O)N[C@H]6CC[C@H](Oc7ccc(C#N)c(Cl)c7)CC6)nn5)C4)C3)cc1)=N[C@@H](Cc1ncco1)c1nnc(C)n1-2 [I-393] | < 500 nM | 1500 to 3000 nM | < 500 nM | < 500 nM | – |
| Cc1sc2c(c1C)C(c1ccc(C#C[C@H]3C[C@@]4(CCCN(c5ccc(C(=O)N[C@H]6CC[C@H](Oc7ccc(C#N)c(Cl)c7)CC6)nn5)C4)C3)cc1)=N[C@@H](Cc1ncco1)c1nnc(C)n1-2 [I-235] | < 500 nM | < 500 nM | < 500 nM | < 500 nM | – |
| Cc1sc2c(c1C)C(c1ccc(C#CC3CC4(C3)CN(c3ccc(C(=O)N[C@H]5CC[C@H](Oc6ccc(C#N)c(Cl)c6)CC5)nn3)C4)cn1)=N[C@H](Cc1ncco1)c1nnc(C)n1-2 [I-281] | < 500 nM | < 500 nM | < 500 nM | < 500 nM | – |
| Cc1sc2c(c1C)C(c1ccc(CN3CCO[C@@H](CNc4ccc(C(=O)N[C@H]5CC[C@H](Oc6ccc(C#N)c(Cl)c6)CC5)nn4)C3)cc1)=N[C@@H](Cc1ncco1)c1nnc(C)n1-2 [I-298] | < 500 nM | < 500 nM | < 500 nM | < 500 nM | – |
| Cc1sc2c(c1C)C(c1ccc(CC3CC4(CCCN(c5ccc(C(=O)N[C@H]6CC[C@H](Oc7ccc(C#N)c(Cl)c7)CC6)nn5)C4)C3)cc1)=N[C@@H](C)c1nnc(C)n1-2 (stereo partly shown) [I-338] | < 500 nM | > 3000 nM | < 500 nM | 500 to 1500 nM | – |
